Patent US20250057770A1, “Monomethylfumarate Prodrug Compositions” (Alkermes Pharma Ireland Limited, priority 2015, published 2025)
Where “and” joins values, the source holds several entries; their conditions need not be identical. Identical values can stand only once. Counter-ions that a name gives are not always drawn.

What was measured:
Format in all cases: in vivo, human
[1] = Phase I 2-period cross-over study (Part 2): safety and tolerability, adverse events; details: DMF 240 mg or Compound 1 DR 420 mg
Text: (§1) (The DMF oral dosage form used in this study was […]®, (Biogen Idec, Inc Cambridge, MA, USA)). A total of 16 subjects were enrolled and randomized to a treatment sequence.
Each dosing period was separated by a wash-out period of 7 days. […]

[2] = Single ascending dose study (Part 1): safety and tolerability, adverse events
Description: (§2) A randomized, double-blind, placebo-controlled, sequential, single ascending dose study was conducted in healthy subjects to investigate the safety, tolerability and pharmacokinetics of capsules containing delayed release (DR) mini-tablets of Compound 1 from Example 2.1 (“Compound 1 DR capsules”). Up to 7 cohorts were included with 8 subjects in each cohort. In each cohort, 6 subjects received Compound 1 DR capsules and 2 subjects were treated with placebo in fasted condition. Compound 1 doses investigated were 49 mg (Cohort 1), 105 mg (Cohort 2), 210 mg (Cohort 3), 420 mg (Cohort 4), 630 mg (Cohort 5), 840 mg (Cohort 6), and 980 mg (Cohort 7) (all weights being mg of prodrug).

[3] = Phase I 2-period cross-over study (Part 2): plasma MMF pharmacokinetics; details: 420 mg Compound 1 DR versus 240 mg DMF
Description: as §1
Each dosing period was separated by a wash-out period of 7 days.
(§3) Blood samples were collected from all subjects prior to dosing and at 0.25, 0.50, 1, 1.50, 2, 2.50, 3, 4, 6, 8, 10, 12, and 24 hours after dosing. Plasma obtained from blood samples were analyzed for Compound 1, MMF and another metabolite using validated LC-MS/MS method. The plasma concentration-time profiles were analyzed via Non-Compartmental analysis (NCA) using Phoenix WinNonLin, version 6.3.

[4] = Single ascending dose study (Part 1): plasma MMF pharmacokinetics; details: oral dosing, 49 to 980 mg
Description: as §2, §3

Question: Which results are given for `COC(=O)/C=C/C(=O)OC` [DMF, Dimethyl fumarate]?
Answer: mean onset of flushing [1]: 1.2 h; Subjects with Constipation ([1]; N = 12): 0 n (%); Subjects with Diarrhoea ([1]; N = 12): 1 (8.3%) n (%) and 1 n (%); Subjects with Eructation ([1]; N = 12): 1 n (%); Subjects with Flatulence ([1]; N = 12): 1 n (%); Subjects with Flushing ([1]; N = 12): 8 (66.7%) n (%) and 8 n (%); Subjects with Gastrointestinal disorders (SOC) ([1]; N = 12): 5 (41.7%) n (%) and 5 n (%); Subjects with Nausea ([1]; N = 12): 3 (25%) n (%) and 3 n (%); Subjects with Retching ([1]; N = 12): 1 (8.3%) n (%) and 1 n (%); Subjects with Vascular disorders (SOC) ([1]; N = 12): 8 n (%)

Question: For `COC(=O)/C=C/C(=O)OCCN1C(=O)CCC1=O` [Compound 1, 2-(2,5-dioxopyrrolidin-1-yl)ethyl methyl fumarate], which “Subjects with Abdominal discomfort” value ([2]; 49 mg, N = 6) is on record?
Answer: 0 n (%)

Question: And the “Subjects with Abdominal pain” value ([2]; 49 mg, N = 6)?
Answer: 0 n (%)

Question: And the “Subjects with Diarrhoea” value ([2]; 49 mg, N = 6)?
Answer: 0 n (%)

Question: What about the “Subjects with Flatulence” value ([2]; 49 mg, N = 6) of the same compound?
Answer: 0 n (%)

Question: And the “Subjects with Flushing” value ([2]; 49 mg, N = 6)?
Answer: 1 (16.7) n (%)

Question: And the “Subjects with Frequent bowel movements” value ([2]; 49 mg, N = 6)?
Answer: 1 (16.7) n (%)

Question: And the “Subjects with Gastrointestinal disorders (SOC)” value ([2]; 49 mg, N = 6)?
Answer: 1 (16.7) n (%)

Question: And the “Subjects with Nausea” value ([2]; 49 mg, N = 6)?
Answer: 0 n (%)

Question: What about the “Subjects with Vascular disorders (SOC)” value ([2]; 49 mg, N = 6) of the same compound?
Answer: 1 (16.7) n (%)

Question: And the “Subjects with Abdominal discomfort” value ([2]; 105 mg, N = 6)?
Answer: 0 n (%)

Question: And the “Subjects with Abdominal pain” value ([2]; 105 mg, N = 6)?
Answer: 0 n (%)

Question: And the “Subjects with Diarrhoea” value ([2]; 105 mg, N = 6)?
Answer: 0 n (%)

Question: What about the “Subjects with Flatulence” value ([2]; 105 mg, N = 6) of the same compound?
Answer: 0 n (%)

Question: What about the “Subjects with Flushing” value ([2]; 105 mg, N = 6) of the same compound?
Answer: 0 n (%)

Question: What about the “Subjects with Frequent bowel movements” value ([2]; 105 mg, N = 6) of the same compound?
Answer: 0 n (%)

Question: What about the “Subjects with Gastrointestinal disorders (SOC)” value ([2]; 105 mg, N = 6) of the same compound?
Answer: 0 n (%)

Question: And the “Subjects with Nausea” value ([2]; 105 mg, N = 6)?
Answer: 0 n (%)

Question: And the “Subjects with Vascular disorders (SOC)” value ([2]; 105 mg, N = 6)?
Answer: 0 n (%)

Question: What about the “Subjects with Abdominal discomfort” value ([2]; 210 mg, N = 6) of the same compound?
Answer: 1 (16.7) n (%)

Question: What about the “Subjects with Abdominal pain” value ([2]; 210 mg, N = 6) of the same compound?
Answer: 0 n (%)

Question: And the “Subjects with Diarrhoea” value ([2]; 210 mg, N = 6)?
Answer: 0 n (%)

Question: What about the “Subjects with Flatulence” value ([2]; 210 mg, N = 6) of the same compound?
Answer: 0 n (%)

Question: And the “Subjects with Flushing” value ([2]; 210 mg, N = 6)?
Answer: 2 (33.3) n (%)

Question: What about the “Subjects with Frequent bowel movements” value ([2]; 210 mg, N = 6) of the same compound?
Answer: 0 n (%)

Question: And the “Subjects with Gastrointestinal disorders (SOC)” value ([2]; 210 mg, N = 6)?
Answer: 1 (16.7) n (%)

Question: What about the “Subjects with Nausea” value ([2]; 210 mg, N = 6) of the same compound?
Answer: 0 n (%)

Question: And the “Subjects with Vascular disorders (SOC)” value ([2]; 210 mg, N = 6)?
Answer: 2 (33.3) n (%)

Question: And the “Subjects with Abdominal discomfort” value ([2]; 420 mg, N = 6)?
Answer: 0 n (%)

Question: And the “Subjects with Abdominal pain” value ([2]; 420 mg, N = 6)?
Answer: 0 n (%)

Question: And the “Subjects with Diarrhoea” value ([2]; 420 mg, N = 6)?
Answer: 0 n (%)

Question: What about the “Subjects with Flatulence” value ([2]; 420 mg, N = 6) of the same compound?
Answer: 0 n (%)

Question: And the “Subjects with Flushing” value ([2]; 420 mg, N = 6)?
Answer: 4 (66.7) n (%)

Question: What about the “Subjects with Frequent bowel movements” value ([2]; 420 mg, N = 6) of the same compound?
Answer: 0 n (%)

Question: What about the “Subjects with Gastrointestinal disorders (SOC)” value ([2]; 420 mg, N = 6) of the same compound?
Answer: 0 n (%)

Question: And the “Subjects with Nausea” value ([2]; 420 mg, N = 6)?
Answer: 0 n (%)

Question: And the “Subjects with Vascular disorders (SOC)” value ([2]; 420 mg, N = 6)?
Answer: 4 (66.7) n (%)

Question: And the “Subjects with Abdominal discomfort” value ([2]; 630 mg, N = 6)?
Answer: 0 n (%)

Question: And the “Subjects with Abdominal pain” value ([2]; 630 mg, N = 6)?
Answer: 0 n (%)

Question: What about the “Subjects with Diarrhoea” value ([2]; 630 mg, N = 6) of the same compound?
Answer: 1 n (%)

Question: And the “Subjects with Flatulence” value ([2]; 630 mg, N = 6)?
Answer: 0 n (%)

Question: And the “Subjects with Flushing” value ([2]; 630 mg, N = 6)?
Answer: 6 n (%)

Question: And the “Subjects with Frequent bowel movements” value ([2]; 630 mg, N = 6)?
Answer: 0 n (%)

Question: What about the “Subjects with Gastrointestinal disorders (SOC)” value ([2]; 630 mg, N = 6) of the same compound?
Answer: 1 n (%)

Question: And the “Subjects with Nausea” value ([2]; 630 mg, N = 6)?
Answer: 0 n (%)

Question: And the “Subjects with Vascular disorders (SOC)” value ([2]; 630 mg, N = 6)?
Answer: 6 n (%)

Question: What about the “Subjects with Abdominal discomfort” value ([2]; 840 mg, N = 6) of the same compound?
Answer: 0 n (%)

Question: And the “Subjects with Abdominal pain” value ([2]; 840 mg, N = 6)?
Answer: 0 n (%)

Question: What about the “Subjects with Diarrhoea” value ([2]; 840 mg, N = 6) of the same compound?
Answer: 1 (16.7) n (%)

Question: What about the “Subjects with Flatulence” value ([2]; 840 mg, N = 6) of the same compound?
Answer: 2 (33.3) n (%)

Question: And the “Subjects with Flushing” value ([2]; 840 mg, N = 6)?
Answer: 5 (83.3) n (%)

Question: And the “Subjects with Frequent bowel movements” value ([2]; 840 mg, N = 6)?
Answer: 0 n (%)

Question: And the “Subjects with Gastrointestinal disorders (SOC)” value ([2]; 840 mg, N = 6)?
Answer: 2 (33.3) n (%)

Question: What about the “Subjects with Nausea” value ([2]; 840 mg, N = 6) of the same compound?
Answer: 0 n (%)

Question: What about the “Subjects with Vascular disorders (SOC)” value ([2]; 840 mg, N = 6) of the same compound?
Answer: 5 (83.3) n (%)

Question: What about the “Subjects with Abdominal discomfort” value ([2]; 980 mg, N = 6) of the same compound?
Answer: 1 n (%)

Question: And the “Subjects with Abdominal pain” value ([2]; 980 mg, N = 6)?
Answer: 1 n (%)

Question: What about the “Subjects with Diarrhoea” value ([2]; 980 mg, N = 6) of the same compound?
Answer: 2 n (%)

Question: What about the “Subjects with Flatulence” value ([2]; 980 mg, N = 6) of the same compound?
Answer: 1 n (%)

Question: And the “Subjects with Flushing” value ([2]; 980 mg, N = 6)?
Answer: 6 n (%)

Question: And the “Subjects with Frequent bowel movements” value ([2]; 980 mg, N = 6)?
Answer: 0 n (%)

Question: And the “Subjects with Gastrointestinal disorders (SOC)” value ([2]; 980 mg, N = 6)?
Answer: 4 n (%)

Question: And the “Subjects with Nausea” value ([2]; 980 mg, N = 6)?
Answer: 2 n (%)

Question: What about the “Subjects with Vascular disorders (SOC)” value ([2]; 980 mg, N = 6) of the same compound?
Answer: 6 n (%)

Question: What about the “tolerability during the trial” value ([2]; 49 to 980 mg single doses) of the same compound?
Answer: well tolerated

Question: What about the Subjects with Flushing ([2]; dose levels ≥420 mg) of the same compound?
Answer: > 50%

Question: And the “PK variability (% CV) compared to DMF treatment” value [3]?
Answer: less PK variability

Question: And the “PK variability (% CV) compared to DMF treatment” value ([3]; listed as 2-(2,5-dioxopyrrolidin-1-yl)ethyl methyl fumarate)?
Answer: less variability

Question: And the “conversion to metabolite MMF in plasma” value [4]?
Answer: rapidly converted

Question: What about the “Subjects with Flushing” value ([1]; N = 12) of the same compound?
Answer: 8 (66.7%) n (%)

Question: And the “Subjects with Gastrointestinal disorders (SOC)” value ([1]; N = 12)?
Answer: 1 (8.3%) n (%)
